The source of these data is patent US8664271B2, “Stabilized leukotriene B4 (LTB4) agent pharmaceutical formulation” (LTB4 Sweden AB, priority 2004, dated 2014).

Common to all, as to format: physicochemical
Data set [1] is described as follows: Effect of pH (phosphate buffer) on stability of aqueous LTB4 Na salt solution at 17.5 μg/ml. As to the method:
Aqueous isotonic LTB4 Na salt solutions at the concentration of 17.5 μg/ml were obtained by dilution in phosphate buffered saline (3 mM sodium phosphate buffer, pH 7.5, 8.5, 9.5 and 10.5) containing 0.01% EDTA of an LTB4 Na salt solution at 25 mg/ml (Example 2). Solutions of LTB4 Na salt at 17.5 μg/ml of the 4 different pH were dispensed in 2 ml vials for storage under air, in the dark at 4±4° C. or 20±5° C. for 15 months prior to reverse phase HPLC analysis of LTB4 and impurities, as described in Example 1.

Data set [2] can be described thus: Effect of pH (phosphate/glycine buffer) on stability of aqueous LTB4 Na salt solution at 1.75 mg/ml. As to the method:
Aqueous isotonic LTB4 Na salt solutions at the concentration of 1.75 mg/ml in phosphate/glycine buffered saline (3 mM sodium phosphate and 10 mM glycine buffer, pH 7.5, 8.5, 9.5 and 10.5) containing 0.01% EDTA were obtained by dilution of a 25 mg/ml solution of LTB4 Na salt (see Example 2) with the appropriate phosphate/glycine buffered saline containing 0.01% EDTA. Solutions were dispensed in 2 ml vials for storage under air, in the dark at 4±4° C. and 20±5° C. for 9 months prior to reverse phase HPLC analysis of LTB4 and impurities as described in Example 1.

The nature of data set [3]: Forced degradation of ethanolic solutions of LTB4 (acid form and Na salt). As to the method:
The ethanolic solution of LTB4 (acid form) (EtOH/water, 95/5) obtained from the manufacturer (Cascade Biochem, UK) was diluted with EtOH/water, 95/5 to generate ethanolic solutions of LTB4 (acid form) at 9 and 0.9 mg/ml. Ethanolic solutions of the sodium salt of LTB4 at 9 and 0.9 mg/ml were obtained by adding 1.05 equivalent of sodium hydroxide. Solutions of the sodium salt of LTB4 at the concentration of 9 and 0.9 mg/ml in 75/25 EtOH/10 mM glycine in water at pH 10.5 (sodium hydroxide), were obtained by mixing 3 volumes of solutions of the sodium salt of LTB4 at 12 and 1.2 mg/ml in EtOH/water, 95/5 with 1 volume of 40 mM glycine buffer at pH 10.5. Solutions were dispensed in 2 ml vials for storage under air in the dark at −80° C. and 40±5° C. for 17 months prior to reverse phase HPLC analysis of LTB4 and impurities as described in Example 1.

Data set [4] in a line: Stability of freeze-dried LTB4 Na salt solutions (mannitol, with or without HSA). The conditions noted are these: for level of impurities: freeze-dried solution 35 μg/ml, pH 7.5, 4% mannitol. As to the method: Aqueous isotonic LTB4 Na salt solutions at the concentration of 35 μg/ml in phosphate buffered saline (3 mM sodium phosphate buffer, pH 7.5 or 9.5) containing 0.01% EDTA were obtained as described in Example 5. Mannitol was added to all solutions to the final concentration of 4% in order to generate a solid residue (mannitol bread) containing LTB4 Na salt and all components of the excipient upon freeze-drying. Fatty acid free (delipidated) human serum albumine (HSA, Sigma Chemicals, St-Louis, Mo.) was added to some of the solutions to the final concentration of 1 mg/ml prior to final pH adjustment (to 7.5 or 9.5). Solutions were dispensed in 2 ml vials, frozen at −20° C. and freeze-dried. The vials containing the freeze-dried solutions (mannitol breads) were then sealed as described in Example 1 (but under air instead of argon), and stored in the dark at 40±5° C. After 1.5 or 4.5 months, vials were opened and the mannitol breads (containing LTB4) were dissolved using 1 ml of water to regenerate the original LTB4 Na salt solutions at 35 μg/ml. LTB4 and impurities were then analyzed by reverse phase HPLC as described in Example 1.

A short description of data set [5]: Stability of aqueous LTB4 Na salt solution at pH 7.4 with or without EDTA (HPLC impurities). The conditions noted are these: aqueous solution 5 mg/ml. As to the method: LTB4 (acid form) was obtained from Cascade Biochem (U.K.) in solution in ethanol/water, 95/5. The purity level of this starting material was about 98.5% (+0.3%) as assessed by reverse phase HPLC. The ethanolic LTB4 solution was neutralized with an equivalent of sodium hydroxide to obtain LTB4 sodium (Na) salt. The ethanolic solution of LTB4 Na salt was evaporated to dryness under reduced pressure using a rotoevaporator and a water bath (30° C.), until an oily residue is obtained. The residue was redisolved in Dulbeccos' phosphate buffered saline (DPBS) at pH 7.4 containing or not, 0.01% ethylenediaminetetraacetic acid (EDTA) to obtain a final concentration of 5 mg LTB4/ml. Solutions were dispensed in 2 ml type I borosilicate glass vials which were then sealed under argon using Teflon-lined rubber stoppers and aluminium caps. The samples were stored in the dark at 25±5° C. until analysis at the indicated time points. Analysis of LTB4 solutions was carried out by reverse phase HPLC using a C18, 5μ particle, 4.7X250 mm column (Nucleosil) and methanol/acetronitrile gradient elution; detection of LTB4 and impurities was performed on line using an HPLC UV spectrophotometer at 270 nm.

Data set [6] in a line: Forced degradation (40° C.) of aqueous LTB4 Na salt solutions at different concentrations. Conditions: aqueous isotonic pH 7.5, 0.01% EDTA. How it is done:
A solution of LTB4 (acid form) at the concentration of 12 mg/ml in ethanol/water, 95/5 (from Cascade Biochem, U.K.), was neutralized with an equivalent of sodium hydroxide to generate the Na salt. […] The ethanolic solution of LTB4 Na salt was evaporated (see Example 1) until an oily residue is obtained. The residue was then redissolved in a phosphate buffered sodium chloride solution (saline) (30 mM sodium phosphate, pH 7.5) containing 0.01% EDTA in order to obtain an isotonic solution of LTB4 Na salt at 25 mg/ml. LTB4 Na salt solution at 0.1 mg/ml was obtained by dilution of the 25 mg/ml solution with an isotonic 30 mM sodium phosphate buffered saline, pH 7.5 containing 0.01% EDTA. Aliquots of the solutions were dispensed in 2 ml type I glass vials as described in Example 1, and stored under air, in the dark, at 40±5° C. LTB4 and impurities were analyzed at the indicated times by reverse phase HPLC using UV detection at 270 nm.

As to `CCCCC/C=C\C[C@@H](O)/C=C/C=C/C=C\[C@@H](O)CCCC(=O)[O-].[Na+]` [LTB4 Na salt], in data set [1] (pH 7.5 to 10.5, 15 months of storage at 4° C.), the “degradation of LTB4” value is reported as “very little degradation”. Besides, the “effect of increasing pH on stability” value is given as “strikingly increases the stability” in data set [1] (phosphate buffered saline pH 7.5 to 10.5, 0.01% EDTA, 15 months, more evident at 20° C.); “strikingly increases the stability” in data set [2] (1.75 mg/ml, phosphate/glycine buffered saline pH 7.5 to 10.5, 0.01% EDTA, 9 months at 4° C. and 20° C.). Besides, the “effect of increasing pH on solution stability” value in data set [2] (forced degradation, storage at 40° C., data not shown) is listed as “dramatic improvement”. Also, the impurity level in data set [3] (0.9 mg/ml in 75/25 EtOH/10 mM glycine pH 10.5, 17 months at 40° C.) is 4.3 % of AUC; in data set [3] (0.9 mg/ml in 95/5 EtOH/water, 17 months at 40° C.), 4.9 % of AUC; in data set [3] (9 mg/ml in 75/25 EtOH/10 mM glycine pH 10.5, 17 months at 40° C.) it was 3.8%; in data set [5] (DPBS pH 7.4, 0.01% EDTA, 60 days of storage at 25° C.) it was 2.9%; in data set [5] (DPBS pH 7.4, 0.01% EDTA, 90 days of storage at 25° C.), 8.6%; in data set [5] (DPBS pH 7.4, no EDTA, 14 days of storage at 25° C.), 23.3 % of LTB4 peak area. Besides, the level of impurities in data set [3] (9.0 mg/ml in EtOH/water 95/5, 17 months at 40° C., AUC at 270 nm) is listed as 5.4 % of AUC; in data set [4] (1.5 months at 40° C.) it was 22.7%; in data set [4] (4.5 months at 40° C.), 51.3%; in data set [4] (redissolved immediately (time 0)), 2.9%; in data set [5] (DPBS pH 7.4, no EDTA, 7 days of storage at 25° C.), “increased level of impurities”. In addition, in data set [4] (freeze-dried, 1.5 months (with HSA) or 4.5 months at 40° C.), the “effect of elevation of pH from 7.5 to 9.5 prior to freeze-drying” value was “striking decrease in the level of impurities”. For the same compound, in data set [4] (freeze-dried, pH 7.5, HSA 1 mg/ml, 1.5 months of storage at 40° C.), the “decrease in the level of impurities by addition of HSA” value is recorded as roughly 50%. In addition, in data set [5] (DPBS pH 7.4, 0.01% EDTA, up to 14 days of storage at 25° C.), the “degradation” value was “no increase of degradation”. In addition, the “stability of 25 mg/ml solution compared with 0.1 mg/ml solution” value in data set [6] was “much less stable”.
